Experimental findings from patent US8552017B2, “2-amino-3-sulphonyl-tetrahydro-pyrazolo[1,5-A]pyrido-pyrimidine antagonists of serotonin 5-HT6 receptors, methods for the production and use thereof” (priority 2008, dated 2013) are described below.

Assay [1] addresses T1, 5-HT6 receptor (Homo sapiens (Human), UniProt P50406). Put plainly: Antagonistic activity test towards 5-HT6 receptors (serotonin-induced intracellular cAMP, LANCE cAMP kit, HEK 293 cells). It is filed as cell-based. The note with it: read-out: IC50 in the setting of functional assay. As for the experimental part: Antagonistic activity test of compounds of the general formulas 1 and 2 towards 5-HT6 receptors. Compounds of general formulas 1 and 2 were tested for their ability to prevent 5-HT6 receptors activation by serotonin. HEK 293 cells (kidney cells of human's embryo) with artificially expressed 5-HT6 receptor, activation of which by serotonin leads to increasing the concentration of intracellular cAMP were used. Intracellular cAMP content was determined using reagent kit LANCE cAMP (PerkinElmer) according to the method described by the manufacturer of the kit [http://las.perkinelmer.com/content/Manuals]. Effectiveness of compounds was estimated by their ability to reduce the content of intracellular cAMP induced by serotonin.

Assay [2] addresses T1, 5-HT6 receptor. The assay can be described thus: Competitive radioligand binding ([3H] Lysergic acid diethylamide) to serotonin 5-HT6 receptors, HeLa cell membranes. As for the experimental part: Screening of the disclosed compounds for their potential ability to interact with serotonin 5-HT6 receptors was carried out by the method of radioligand binding. For this purpose membrane species were prepared from HeLa cells expressing recombinant human 5-HT6 receptors, by means of cells homogenization in glass homogenizer with subsequent separation of plasmatic membranes from cell nucli, mitochondria's and cell wreckages by differential centrifugation. Determination of tested compounds binding to 5-HT6 receptors was carried out according to the method described in [Monsma F J Jr, Shen Y, Ward R P, Hamblin M W and Sibley D R, Cloning and expression of a novel serotonin receptor with high affinity for tricyclic psychotropic drugs. Mol Pharmacol. 43:320-327, 1993]. […] Methiothepin was used as a positive control. Binding of the tested compounds with the receptor was determined by their ability to displace the radioligand and was expressed in percent of displacement. The percent of displacement was calculated according to the following equation:
[formula] wherein: TA—was overall radioactivity in the presence of radioligand only, CA—was radioactivity in the presence of radioligand and tested compound and NA—was radioactivity in the presence of radioligand and Serotonin (5 μM).

Where a name gives a salt, the structure may show the parent alone.

T1 sequence (P50406 whole entry): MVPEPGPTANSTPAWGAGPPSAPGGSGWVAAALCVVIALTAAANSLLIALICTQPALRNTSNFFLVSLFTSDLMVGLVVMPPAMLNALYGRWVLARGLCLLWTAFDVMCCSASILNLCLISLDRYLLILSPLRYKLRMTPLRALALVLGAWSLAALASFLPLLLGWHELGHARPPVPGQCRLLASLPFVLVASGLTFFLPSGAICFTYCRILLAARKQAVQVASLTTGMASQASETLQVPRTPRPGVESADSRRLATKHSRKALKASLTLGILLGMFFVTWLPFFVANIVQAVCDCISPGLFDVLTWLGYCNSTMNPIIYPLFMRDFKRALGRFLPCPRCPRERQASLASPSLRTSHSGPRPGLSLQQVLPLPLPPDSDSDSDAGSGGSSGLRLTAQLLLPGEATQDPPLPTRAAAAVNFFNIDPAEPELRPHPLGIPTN

As for `CNc1nn2c3c(cnc2c1S(=O)(=O)c1ccccc1)CN(C)CC3` [1.1(3), 2-methylamino-7-methyl-3-phenylsulfonyl-6,7,8,9-tetrahydropyrazolo[1,5-a]pyrido[4,3-e]pyrimidine], in assay [1], the IC50 is 29.7 nM.

Regarding `CNc1nn2c3c(c(C)nc2c1S(=O)(=O)c1ccccc1)CN(C)CC3` [1.1(4)•HCl], the IC50 in assay [2] (1.5 nM [3H] Lysergic acid diethylamide) was 1.48 nM. In addition, affinity in assay [2] (Ki=IC50/(1+[L]/KD)) was put at a Ki of 0.685 nM.

By IC50 is commonly meant the midpoint of a concentration-inhibition curve. One may read the Ki as the equilibrium dissociation constant of an inhibitor or competing ligand from its target.
